# Results published in ChEMBL document CHEMBL3885881, “DrugMatrix”.
# Organism: Rattus norvegicus
# Experiment: DrugMatrix - Regimen: Daily Repeat
# Type: toxicity, organism-based, Sprague-Dawley
# Parameters: regimen Daily Repeat, gender Male, age 6-8 weeks
# Settings: in vivo, iv, vehicle 100 % SALINE; for ABSOLUTE BASOPHIL / ABSOLUTE EOSINOPHIL / ABSOLUTE LYMPHOCYTE / ABSOLUTE MONOCYTE / ABSOLUTE SEGMENTED NEUTROPHIL / BASOPHIL / EOSINOPHIL / ERYTHROCYTE COUNT / HEMATOCRIT / HEMOGLOBIN / LEUKOCYTE COUNT / LYMPHOCYTE / MEAN CORPUSCULAR HEMOGLOBIN / MEAN CORPUSCULAR HEMOGLOBIN CONCENTRATION / MEAN CORPUSCULAR VOLUME / MONOCYTE / NEUTROPHIL / NUCLEATED RED BLOOD CELLS / PLATELET COUNT: tissue Blood; for ALANINE AMINOTRANSFERASE / ALBUMIN / ALKALINE PHOSPHATASE / ASPARTATE AMINOTRANSFERASE / BLOOD UREA NITROGEN / CARBON DIOXIDE / CHLORIDE / CHOLESTEROL / CREATINE PHOSPHOKINASE / CREATININE / GLUCOSE / LACTATE DEHYDROGENASE / LIPASE / PHOSPHORUS / POTASSIUM / SODIUM / TOTAL BILIRUBIN / TOTAL PROTEIN / URIC ACID: tissue Plasma
# [1] = 100 mg/kg, 72 h, dose level Low, time 3 day
# [2] = 100 mg/kg, 120 h, dose level Low, time 5 day
# [3] = 755 mg/kg, 72 h, dose level High, time 3 day
# [4] = 755 mg/kg, 120 h, dose level High, time 5 day
smiles,measurement,setting,value
O=S(=O)([O-])CCS.[Na+] [MESNA],ABSOLUTE BASOPHIL,[1],0 CELLS/uL
same,ABSOLUTE EOSINOPHIL,[1],43.67 CELLS/uL
same,ABSOLUTE LYMPHOCYTE,[1],13323 CELLS/uL
same,ABSOLUTE MONOCYTE,[1],251.67 CELLS/uL
same,ABSOLUTE SEGMENTED NEUTROPHIL,[1],848.33 CELLS/uL
same,BASOPHIL,[1],0%
same,EOSINOPHIL,[1],0.33%
same,ERYTHROCYTE COUNT,[1],6 x10E6/uL
same,HEMATOCRIT,[1],37.23%
same,HEMOGLOBIN,[1],13.77 G/DL
same,LEUKOCYTE COUNT,[1],14.47 x10E3/uL
same,LYMPHOCYTE,[1],92%
same,MEAN CORPUSCULAR HEMOGLOBIN,[1],22.97 pg
same,MEAN CORPUSCULAR HEMOGLOBIN CONCENTRATION,[1],36.97 G/DL
same,MEAN CORPUSCULAR VOLUME,[1],62.07 fL
same,MONOCYTE,[1],1.67%
same,NEUTROPHIL,[1],6%
same,NUCLEATED RED BLOOD CELLS,[1],0.67 /100WBC
same,PLATELET COUNT,[1],1218 x10E3/uL
same,ALANINE AMINOTRANSFERASE,[1],53.67 u/L
same,ALBUMIN,[1],4.3 G/DL
same,ALKALINE PHOSPHATASE,[1],358.33 u/L
same,ASPARTATE AMINOTRANSFERASE,[1],87 u/L
same,BLOOD UREA NITROGEN,[1],15 mg/dL
same,CARBON DIOXIDE,[1],26 mmol/L
same,CHLORIDE,[1],102.33 MEQ/L
same,CHOLESTEROL,[1],79.33 mg/dL
same,CREATINE PHOSPHOKINASE,[1],501.33 u/L
same,CREATININE,[1],0.29 mg/dL
same,GLUCOSE,[1],159.67 mg/dL
same,LACTATE DEHYDROGENASE,[1],166 u/L
same,LIPASE,[1],12 u/L
same,PHOSPHORUS,[1],12.7 mg/dL
same,POTASSIUM,[1],6.86 MEQ/L
same,SODIUM,[1],147.77 MEQ/L
same,TOTAL BILIRUBIN,[1],0.2 mg/dL
same,TOTAL PROTEIN,[1],6.23 G/DL
same,URIC ACID,[1],1.63 mg/dL
same,ABSOLUTE BASOPHIL,[2],0 CELLS/uL
same,ABSOLUTE EOSINOPHIL,[2],120.33 CELLS/uL
same,ABSOLUTE LYMPHOCYTE,[2],14708 CELLS/uL
same,ABSOLUTE MONOCYTE,[2],625.67 CELLS/uL
same,ABSOLUTE SEGMENTED NEUTROPHIL,[2],879.33 CELLS/uL
same,BASOPHIL,[2],0%
same,EOSINOPHIL,[2],0.67%
same,ERYTHROCYTE COUNT,[2],5.55 x10E6/uL
same,HEMATOCRIT,[2],36.7%
same,HEMOGLOBIN,[2],13.53 G/DL
same,LEUKOCYTE COUNT,[2],16.33 x10E3/uL
same,LYMPHOCYTE,[2],90.33%
same,MEAN CORPUSCULAR HEMOGLOBIN,[2],24.4 pg
same,MEAN CORPUSCULAR HEMOGLOBIN CONCENTRATION,[2],36.9 G/DL
same,MEAN CORPUSCULAR VOLUME,[2],66.07 fL
same,MONOCYTE,[2],3.67%
same,NEUTROPHIL,[2],5.33%
same,NUCLEATED RED BLOOD CELLS,[2],0 /100WBC
same,PLATELET COUNT,[2],1137 x10E3/uL
same,ALANINE AMINOTRANSFERASE,[2],56.67 u/L
same,ALBUMIN,[2],4.33 G/DL
same,ALKALINE PHOSPHATASE,[2],375 u/L
same,ASPARTATE AMINOTRANSFERASE,[2],83.67 u/L
same,BLOOD UREA NITROGEN,[2],15.33 mg/dL
same,CARBON DIOXIDE,[2],22.67 mmol/L
same,CHLORIDE,[2],102.67 MEQ/L
same,CHOLESTEROL,[2],87.33 mg/dL
same,CREATINE PHOSPHOKINASE,[2],282.67 u/L
same,CREATININE,[2],0.27 mg/dL
same,GLUCOSE,[2],153.67 mg/dL
same,LACTATE DEHYDROGENASE,[2],140.67 u/L
same,LIPASE,[2],11 u/L
same,PHOSPHORUS,[2],11.4 mg/dL
same,POTASSIUM,[2],6.06 MEQ/L
same,SODIUM,[2],146.67 MEQ/L
same,TOTAL BILIRUBIN,[2],0.3 mg/dL
same,TOTAL PROTEIN,[2],6.4 G/DL
same,URIC ACID,[2],1.07 mg/dL
same,ABSOLUTE BASOPHIL,[3],0 CELLS/uL
same,ABSOLUTE EOSINOPHIL,[3],65.67 CELLS/uL
same,ABSOLUTE LYMPHOCYTE,[3],13484.33 CELLS/uL
same,ABSOLUTE MONOCYTE,[3],234.33 CELLS/uL
same,ABSOLUTE SEGMENTED NEUTROPHIL,[3],1215.67 CELLS/uL
same,BASOPHIL,[3],0%
same,EOSINOPHIL,[3],0.33%
same,ERYTHROCYTE COUNT,[3],5.37 x10E6/uL
same,HEMATOCRIT,[3],34.63%
same,HEMOGLOBIN,[3],12.87 G/DL
same,LEUKOCYTE COUNT,[3],15 x10E3/uL
same,LYMPHOCYTE,[3],90%
same,MEAN CORPUSCULAR HEMOGLOBIN,[3],23.93 pg
same,MEAN CORPUSCULAR HEMOGLOBIN CONCENTRATION,[3],37.17 G/DL
same,MEAN CORPUSCULAR VOLUME,[3],64.43 fL
same,MONOCYTE,[3],1.67%
same,NEUTROPHIL,[3],8%
same,NUCLEATED RED BLOOD CELLS,[3],0 /100WBC
same,PLATELET COUNT,[3],960.33 x10E3/uL
same,ALANINE AMINOTRANSFERASE,[3],55.33 u/L
same,ALBUMIN,[3],4.07 G/DL
same,ALKALINE PHOSPHATASE,[3],330.67 u/L
same,ASPARTATE AMINOTRANSFERASE,[3],74.33 u/L
same,BLOOD UREA NITROGEN,[3],17.33 mg/dL
same,CARBON DIOXIDE,[3],25.67 mmol/L
same,CHLORIDE,[3],102 MEQ/L
same,CHOLESTEROL,[3],76 mg/dL
same,CREATINE PHOSPHOKINASE,[3],342.67 u/L
same,CREATININE,[3],0.21 mg/dL
same,GLUCOSE,[3],165.33 mg/dL
same,LACTATE DEHYDROGENASE,[3],152.67 u/L
same,LIPASE,[3],9.67 u/L
same,PHOSPHORUS,[3],12.4 mg/dL
same,POTASSIUM,[3],6.83 MEQ/L
same,SODIUM,[3],143.67 MEQ/L
same,TOTAL BILIRUBIN,[3],0.13 mg/dL
same,TOTAL PROTEIN,[3],6.23 G/DL
same,URIC ACID,[3],1.8 mg/dL
same,ABSOLUTE BASOPHIL,[4],0 CELLS/uL
same,ABSOLUTE EOSINOPHIL,[4],0 CELLS/uL
same,ABSOLUTE LYMPHOCYTE,[4],18795 CELLS/uL
same,ABSOLUTE MONOCYTE,[4],498.33 CELLS/uL
same,ABSOLUTE SEGMENTED NEUTROPHIL,[4],1040 CELLS/uL
same,BASOPHIL,[4],0%
same,EOSINOPHIL,[4],0%
same,ERYTHROCYTE COUNT,[4],5.72 x10E6/uL
same,HEMATOCRIT,[4],34.77%
same,HEMOGLOBIN,[4],13.27 G/DL
same,LEUKOCYTE COUNT,[4],20.33 x10E3/uL
same,LYMPHOCYTE,[4],92.33%
same,MEAN CORPUSCULAR HEMOGLOBIN,[4],23.2 pg
same,MEAN CORPUSCULAR HEMOGLOBIN CONCENTRATION,[4],38.2 G/DL
same,MEAN CORPUSCULAR VOLUME,[4],60.87 fL
same,MONOCYTE,[4],2.67%
same,NEUTROPHIL,[4],5%
same,NUCLEATED RED BLOOD CELLS,[4],0 /100WBC
same,PLATELET COUNT,[4],1209.33 x10E3/uL
same,ALANINE AMINOTRANSFERASE,[4],54.33 u/L
same,ALBUMIN,[4],4.23 G/DL
same,ALKALINE PHOSPHATASE,[4],290 u/L
same,ASPARTATE AMINOTRANSFERASE,[4],83.67 u/L
same,BLOOD UREA NITROGEN,[4],19.33 mg/dL
same,CARBON DIOXIDE,[4],24.33 mmol/L
same,CHLORIDE,[4],105.67 MEQ/L
same,CHOLESTEROL,[4],75.33 mg/dL
same,CREATINE PHOSPHOKINASE,[4],517 u/L
same,CREATININE,[4],0.21 mg/dL
same,GLUCOSE,[4],155 mg/dL
same,LACTATE DEHYDROGENASE,[4],338.33 u/L
same,LIPASE,[4],9.67 u/L
same,PHOSPHORUS,[4],12.17 mg/dL
same,POTASSIUM,[4],7.45 MEQ/L
same,SODIUM,[4],147 MEQ/L
same,TOTAL BILIRUBIN,[4],0.17 mg/dL
same,TOTAL PROTEIN,[4],6.23 G/DL
same,URIC ACID,[4],2.07 mg/dL
